{"source": "paper PMC5557808", "about": "(Nature Communications, 2017)", "target": "T1, MMP-8 (Homo sapiens, UniProt P22894)", "T1 construct": "purchased EMD Millipore Corporation (Billerica, MA)", "T1 sequence (P22894 101-467)": "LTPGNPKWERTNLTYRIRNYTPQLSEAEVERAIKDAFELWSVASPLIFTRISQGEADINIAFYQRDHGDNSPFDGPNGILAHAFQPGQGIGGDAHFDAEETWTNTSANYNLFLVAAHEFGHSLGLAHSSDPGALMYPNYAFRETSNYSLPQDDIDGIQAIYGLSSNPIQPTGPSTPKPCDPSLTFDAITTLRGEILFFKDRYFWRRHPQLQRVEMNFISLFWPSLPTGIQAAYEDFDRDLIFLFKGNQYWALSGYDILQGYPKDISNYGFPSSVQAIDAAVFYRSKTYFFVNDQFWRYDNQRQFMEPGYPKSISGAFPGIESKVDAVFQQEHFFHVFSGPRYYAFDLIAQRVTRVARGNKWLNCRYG", "test": "MMP-8 cleavage of soluble PCL conjugates (HPLC decrease of main peak)", "format": "biochemical", "conditions": "900 ng/mL MMP-8, 60 min; p < 0.001, t-test", "experimental": "Pro-MMPs (e.g., MMP-8, MMP-1, or MMP-9; used at 0.1 mg/mL and >100.0 mU/mg based on the manufacturer’s information) were activated with p-aminophenylmercuric acetate (APMA) (8). For that, a 10 mM stock solution of APMA was freshly prepared in 0.1 M NaOH and a 10:1 (v/v) ratio of the respective proenzyme and the APMA solution (MMP:APMA) was incubated for 3 h at 37 °C. The activity was confirmed using the MMP-8 detection kit (QuickZyme Biosciences, Leiden, the Netherlands). A stock solution (90 µg/mL) of the activated MMP was prepared (used for cleavage studies on the PCL or the fully assembled microparticle-PCL-tastant setup (sensor), in MMP-8 buffer (200 mM NaCl, 50 mM Tris-HCl, 5 mM CaCl2, 1 µM ZnCl2, 0.05% Brij 35 at pH 6.8–7.0). All MMP experiments are described in detail in the Supplementary Methods. […]\nin water ( v/v)) and eluent B (0.1 % TFA in 2:3 water-acetonitrile (v/v)) and a gradient from 33 to 80% elu ent B within 30 minutes. UV absorption was r ead at λ = 280 nm or 220 nm. After freezing the samples at -80 °C, fr eeze- drying was performed on a Christ Alpha 1 -4 de vi ce (Martin Christ Gefriertrocknungs anlagen, Osterode am Harz, G e r ma n y) at a desublimers ’ te mperature of - 60 ° C, pressure of 1.030 mbar and processing temperature of 19 °C.\nPro-MMPs (e. g. MMP -8, MMP -1 or MMP-9; adapted to 0.1 mg/mL and > 100.0 mU/mg based on manufacturer information and when appropriate) were activated with APMA 8. For that, a 10 mM stock solution of APMA in 0.1 M NaOH was freshly prepared and a 10:1 (v/v) ratio of the r especti ve proenzyme and APMA solution (MMP:APMA) was incubated for 3 h at 37 °C. The activity was conf ir med using the MMP-8 detection kit (Q uic kZ ym e® Biosciences, Leiden, Netherlands). A stock solution (90 µg/mL) of the activated MMP was prepared (used for cleavage studies on the pr ot eas e-cleavable linker (PCL; e.g. Figure 2) or the fully assemb led microparticle -PCL- t ast ant setup (sensor; e.g. Figure 3) , in MMP -8 buffer (200 mM NaCl, 50 mM Tris-H Cl, 5 mM C aC l2, 1 µM ZnCl2, 0.05 % Brij35 at pH 6.8- 7.0). A ll MMP -8 exp eriments wer e performed as follo ws. 25 µg of the sensor ( see chap ter : Peptide-coupling to beads (Sensor)) in 100 µL MMP-buffer or 1 mg of FP LC -purified and lyophilized PCL as described dissolved 2 mL M MP -buffer resulting in a final concentration of 0.5 mg/ mL substrate was used. […]\nFigure 2A , 3, 4B ). […]\n(sensor) in co mpar ison to negative controls (the negative controls for the PCL an d sensor exper i men ts were b y incubation without MMP under otherwise identical conditions). The relative d ecreas e of the PCL’s ma in peak was char act er ized by HPLC (PCL) or of the sensor’s fluorescence b y FACS (sensor) in comparison to control. […]", "note": "Where a SMILES comes first, the peptide text is derived from it. [ ]: non-standard residue; d: D form. The star is where a group is joined. X1 = CC[N+](CC)(CC(=O)Nc1c(C)cccc1C)Cc1cccc(C(=O)*)c1; Aha = [N-]=[N+]=NCC[C@H](N)C(=O)O", "data": [{"compound": "CC[C@H](C)[C@H](NC(=O)CNC(=O)[C@H](CCC(N)=O)NC(=O)[C@@H]1CCCN1C(=O)CNC(=O)c1cccc(C[N+](CC)(CC)CC(=O)Nc2c(C)cccc2C)c1)C(=O)N[C@@H](C)C(=O)NCC(=O)N[C@@H](CCC(N)=O)C(=O)N[C@@H](CCN=[N+]=[N-])C(=O)N[C@@H](CCC(N)=O)C(=O)O", "note": "[ID #1c] (X1-GPQGIAGQ[Aha]Q-OH)", "values": [{"measurement": "Cleavage by MMP-8 compared with the PCL carboxyfluorescein conjugate (ID #1b)", "value": "significantly better"}]}]}
